Test system: Wistar male rats given galactosamine hydrochloride
Experiment: Test on liver dysfunction suppression effect (galactosamine hydrochloride-induced liver disorder, plasma AST/ALT)
Assay type: in vivo, rat
Conditions: oral 7 days, 6 g/kg of 6 mg/mL solution, galactosamine hydrochloride 750 mg/kg i.p. on day 7, blood on day 9, vs control administration group (p<0.05, Dunnett)
Protocol: (Preparation of Administration Products for Animal Test)
(1) Preparation of Compound I Administration Product
An 8 N sodium hydroxide aqueous solution was added dropwise to 100 mL of roughly purified solution I in small amounts, while checking the pH with a pH meter, to adjust the acid-base property of the solution to pH 6.5. Further, the mixture was diluted with a solvent.
(2) Preparation of Compound V Administration Product
An 8 N sodium hydroxide aqueous solution was added dropwise to 100 mL of roughly purified solution I in small amounts, while checking the pH with a pH meter, to adjust the acid-base property of the solution to pH 8.6, followed by heating at 121° C. for 30 minutes, and further the mixture was diluted with a solvent (the pH of the solution after the heating changed to about pH 6.2 due to acid formation by hydrolysis reaction).
(Test on Liver Dysfunction Suppression Effect)
The aforementioned administration products (1) and (2) were dissolved in a solvent composed of oligosaccharide, cyclic oligosaccharide, and D-sorbitol to give a solution, and the final concentration of compounds I and V dissolved in the solution administered was adjusted to 6 mg/mL. The solution in an amount of 6 g/kg as calculated from specific gravity of the solution was orally administered to 8 week-old Wistar male rats (CHARLES RIVER LABORATORIES JAPAN, INC.) for 7 days with free access to commercially available solid feed and tap water. The solvent free from the aforementioned compounds (1) and (2) in an amount of 6 g/kg was orally administered to the control animals for 7 days. On the 7th day after the start of administration, a 750 mg/kg dose of galactosamine hydrochloride (Wako Pure Chemical Industries, Ltd.) was intraperitoneally administered to each of the animals to which the control and compounds I and V were administered, and the abdomen was opened on the 9th day after the start of administration under pentobarbital anesthesia (50 mg/kg), to collect heparinized blood from the abdominal aorta. The obtained blood was separated into blood plasma, and the AST and ALT values thereof were measured by the JSCC standardization-corresponding method. In FIG. 14, the results are shown as average+standard deviation (the number of animals of each group was 20). Symbol * represents a significant difference (p<0.05) from the control group, which was tested by the Dunnett's test after the one-way analysis of variance.

SMILES	ALT value in blood plasma	AST value in blood plasma
O=C(O)CC(C(=O)O)N1C(=O)CC(O)(CC(=O)O)C1=O (stereo not shown) [compound I]	significantly low	significantly low
O=C(O)CC(NC(=O)CC(O)(CC(=O)O)C(=O)O)C(=O)O (stereo not shown) [compound V]	significantly low	significantly low

Source: US11001573B2, “Citric acid derivative” (ADABIO CO., LTD., priority 2015, dated 2021)
